Results: patent publication US12685735B2 (Foghorn Therapeutics Inc., priority 2020, dated 2026)
Where two headings read alike, the source gives them in different places.

Key:
[1] = target: BRM (Homo sapiens, UniProt P51531); experiment: ATPase catalytic activity assay of BRM (ADP-Glo); assay type: biochemical; conditions: for IC50: read-out: BRM IC50 (μM)*
Method: (§1) The ATPase catalytic activity of BRM or BRG-1 was measured by the in vitro biochemical assay using ADP-Glo™ (Promega, V9102). The ADP-Glo™ kinase assay is performed in two steps once the reaction is complete. The first step is to deplete any unconsumed ATP in the reaction. The second step is to convert the reaction product ADP to ATP, which will be utilized by the luciferase to generate luminesce and be detected by a luminescence reader, such as Envision.
(§2) Then following addition of 5 μL of ADP-Glo™ Reagent provided in the kit, the reaction incubates at room temperature for 40 minutes. Then 10 μL of Kinase Detection Reagent provided in the kit is added to convert ADP to ATP, and the reaction incubates at room temperature for 60 minutes. Finally, luminescence measurement is collected with a plate-reading luminometer, such as Envision.
as §1, with “The” for “The ATPase catalytic activity of BRM or BRG-1 was measured by the in vitro biochemical assay using ADP-Glo™ (Promega, V9102). The”

[2] = target: BRG-1 (Homo sapiens, UniProt P51532); experiment: ATPase catalytic activity assay of BRG-1 (ADP-Glo); assay type: biochemical; conditions: ATPase catalytic activity, ADP-Glo; for IC50: read-out: BRG1 IC50 (μM)*; for Emax: read-out: BRG1 Max % Inhibition
Method: as §1, §2
as §1, with “The” for “The ATPase catalytic activity of BRM or BRG-1 was measured by the in vitro biochemical assay using ADP-Glo™ (Promega, V9102). The”

Sequence of BRM (P51531 whole entry): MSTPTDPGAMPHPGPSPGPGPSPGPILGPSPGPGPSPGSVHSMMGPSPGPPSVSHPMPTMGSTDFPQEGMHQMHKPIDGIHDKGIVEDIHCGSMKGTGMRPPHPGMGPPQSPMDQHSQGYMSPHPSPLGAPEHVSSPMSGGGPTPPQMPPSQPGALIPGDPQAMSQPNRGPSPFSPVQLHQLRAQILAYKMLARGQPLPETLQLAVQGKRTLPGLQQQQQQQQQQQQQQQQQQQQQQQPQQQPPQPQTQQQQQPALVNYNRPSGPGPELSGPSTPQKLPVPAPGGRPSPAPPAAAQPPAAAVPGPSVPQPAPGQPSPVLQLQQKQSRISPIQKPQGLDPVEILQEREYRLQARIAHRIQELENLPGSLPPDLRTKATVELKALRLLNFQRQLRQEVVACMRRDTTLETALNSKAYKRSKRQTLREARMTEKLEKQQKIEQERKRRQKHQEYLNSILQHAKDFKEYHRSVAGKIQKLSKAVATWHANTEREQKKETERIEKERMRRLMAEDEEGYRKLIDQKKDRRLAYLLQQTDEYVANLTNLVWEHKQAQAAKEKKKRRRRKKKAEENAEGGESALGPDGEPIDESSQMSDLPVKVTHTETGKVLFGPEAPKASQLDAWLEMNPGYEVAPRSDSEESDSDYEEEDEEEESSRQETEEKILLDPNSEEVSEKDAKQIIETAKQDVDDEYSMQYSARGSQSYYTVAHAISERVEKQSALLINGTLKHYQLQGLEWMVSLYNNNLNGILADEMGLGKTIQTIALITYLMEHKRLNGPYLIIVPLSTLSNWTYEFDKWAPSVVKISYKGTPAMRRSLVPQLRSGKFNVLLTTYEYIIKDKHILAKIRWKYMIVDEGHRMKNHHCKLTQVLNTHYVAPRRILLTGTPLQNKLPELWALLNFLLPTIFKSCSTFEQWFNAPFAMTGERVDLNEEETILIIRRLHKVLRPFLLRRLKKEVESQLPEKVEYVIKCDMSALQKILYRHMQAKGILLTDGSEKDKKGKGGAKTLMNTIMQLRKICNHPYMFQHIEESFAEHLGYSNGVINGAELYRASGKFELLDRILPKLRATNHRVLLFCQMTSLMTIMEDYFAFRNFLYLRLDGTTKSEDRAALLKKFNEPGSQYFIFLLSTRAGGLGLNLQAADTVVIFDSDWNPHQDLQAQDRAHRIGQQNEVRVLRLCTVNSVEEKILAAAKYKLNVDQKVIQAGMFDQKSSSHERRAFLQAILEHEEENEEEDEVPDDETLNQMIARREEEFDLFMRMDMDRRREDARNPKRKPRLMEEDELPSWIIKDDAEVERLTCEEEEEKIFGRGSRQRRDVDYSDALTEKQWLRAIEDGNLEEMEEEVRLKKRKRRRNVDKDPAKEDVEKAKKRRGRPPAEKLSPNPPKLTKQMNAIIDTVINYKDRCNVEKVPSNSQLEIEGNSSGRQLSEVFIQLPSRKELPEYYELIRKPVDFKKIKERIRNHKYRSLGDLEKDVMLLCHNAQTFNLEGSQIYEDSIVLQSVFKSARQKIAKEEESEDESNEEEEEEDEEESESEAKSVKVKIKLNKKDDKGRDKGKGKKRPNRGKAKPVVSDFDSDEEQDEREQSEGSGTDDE
Sequence of BRG-1 (P51532 whole entry): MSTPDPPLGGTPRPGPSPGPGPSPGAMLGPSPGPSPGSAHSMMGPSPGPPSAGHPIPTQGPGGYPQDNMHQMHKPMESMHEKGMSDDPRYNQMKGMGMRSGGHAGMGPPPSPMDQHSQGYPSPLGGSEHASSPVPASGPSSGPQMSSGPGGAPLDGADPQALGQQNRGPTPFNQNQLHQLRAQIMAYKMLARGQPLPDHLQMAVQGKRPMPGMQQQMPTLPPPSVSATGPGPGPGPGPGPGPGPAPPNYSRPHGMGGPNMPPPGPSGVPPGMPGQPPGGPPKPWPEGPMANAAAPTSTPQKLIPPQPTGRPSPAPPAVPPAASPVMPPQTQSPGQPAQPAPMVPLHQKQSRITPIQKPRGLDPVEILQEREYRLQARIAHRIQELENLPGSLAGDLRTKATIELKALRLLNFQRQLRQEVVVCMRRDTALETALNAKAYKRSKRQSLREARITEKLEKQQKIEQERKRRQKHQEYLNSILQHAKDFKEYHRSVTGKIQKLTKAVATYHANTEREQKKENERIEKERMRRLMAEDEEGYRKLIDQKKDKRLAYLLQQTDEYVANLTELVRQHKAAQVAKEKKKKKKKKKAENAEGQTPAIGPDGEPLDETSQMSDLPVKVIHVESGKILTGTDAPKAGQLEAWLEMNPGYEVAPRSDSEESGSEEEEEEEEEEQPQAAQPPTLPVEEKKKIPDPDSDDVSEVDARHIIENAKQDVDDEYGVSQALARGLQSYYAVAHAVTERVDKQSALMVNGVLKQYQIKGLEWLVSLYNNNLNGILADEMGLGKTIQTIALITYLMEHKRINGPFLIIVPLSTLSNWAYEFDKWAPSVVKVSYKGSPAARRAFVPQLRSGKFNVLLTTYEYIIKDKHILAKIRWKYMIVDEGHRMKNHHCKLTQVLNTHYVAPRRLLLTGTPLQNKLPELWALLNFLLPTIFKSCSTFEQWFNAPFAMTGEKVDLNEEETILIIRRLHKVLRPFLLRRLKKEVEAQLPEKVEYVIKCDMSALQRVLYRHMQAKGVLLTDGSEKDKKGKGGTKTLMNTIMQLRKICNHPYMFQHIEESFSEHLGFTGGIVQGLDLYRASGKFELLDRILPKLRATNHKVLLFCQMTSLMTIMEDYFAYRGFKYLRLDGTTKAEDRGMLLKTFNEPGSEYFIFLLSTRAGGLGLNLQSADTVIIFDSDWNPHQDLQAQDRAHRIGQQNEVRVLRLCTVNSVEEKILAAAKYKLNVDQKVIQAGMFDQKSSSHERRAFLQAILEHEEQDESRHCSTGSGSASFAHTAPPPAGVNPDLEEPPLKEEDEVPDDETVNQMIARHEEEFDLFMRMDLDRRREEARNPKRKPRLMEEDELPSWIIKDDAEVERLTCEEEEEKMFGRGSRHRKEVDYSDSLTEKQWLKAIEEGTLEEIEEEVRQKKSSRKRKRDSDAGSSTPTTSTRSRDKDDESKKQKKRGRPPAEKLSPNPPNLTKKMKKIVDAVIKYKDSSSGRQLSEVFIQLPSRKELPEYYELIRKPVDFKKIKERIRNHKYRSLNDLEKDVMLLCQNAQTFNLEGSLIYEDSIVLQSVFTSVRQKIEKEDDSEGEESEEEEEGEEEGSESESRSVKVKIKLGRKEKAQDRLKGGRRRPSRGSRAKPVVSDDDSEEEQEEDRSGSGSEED

| SMILES | BRM Max % Inhibition [1] [%] | IC50 [1] [µM] | IC50 [2] [µM] | Emax [2] [%] | BRM Max % Inhibition ([1]; 30 nM BRM, 400 μM ATP) [%] | IC50 ([1]; 30 nM BRM, 400 μM ATP) [µM] | IC50 ([2]; 30 nM BRG-1, 400 μM ATP) [µM] | Emax ([2]; 30 nM BRG-1, 400 μM ATP) [%] |
| --- | --- | --- | --- | --- | --- | --- | --- | --- |
| CC(C)(CN)c1cccc(C(=O)NCC(=O)Nc2nc(-c3cccc(-c4cc(C#N)cc(C#N)c4)c3)cs2)c1 [Compound 50, 3-(1-amino-2-methylpropan-2-yl)-N-(2-((4-(3′,5′-dicyano-[1,1′-biphenyl]-3-yl)thiazol-2-yl)amino)-2-oxoethyl)benzamide] | >90 | 0.1 to 1 | 1 to 5 | > 70 |  |  |  |  |
| C[C@@H]1CN(c2cccc(-c3csc(NC(=O)CNC(=O)c4ccc5c(c4)C4(CC4)COC5)n3)n2)C[C@H](C)O1 [Compound 406, N-(2-((4-(6-((cis)-2,6-dimethylmorpholino)pyridin-2-yl)thiazol-2-yl)amino)-2-oxoethyl)spiro[cyclopropane-1,4′-isochromane]-6′-carboxamide] | >95 | < 0.1 | 0.1 to 1 | > 95 |  |  |  |  |
| C[C@@H]1CN(c2cccc(-c3csc(NC(=O)CNC(=O)c4cnc5c(c4)[C@@](C)(C#N)CC5)n3)c2)C[C@H](C)O1 [Compound 253, (S)-5-cyano-N-(2-((4-(3-((cis)-2,6-dimethylmorpholino)phenyl)thiazol-2-yl)amino)-2-oxoethyl)-5-methyl-6,7-dihydro-5H-cyclopenta[b]pyridine-3-carboxamide] | >90 | 1 to 5 | 1 to 5 | > 50 |  |  |  |  |
| Cc1nccc(-c2cccc(-c3csc(NC(=O)CNC(=O)c4cccc(C(C)(C)CN)c4)n3)c2)n1 [Compound 95] | >95 | < 0.1 | 0.1 to 1 | > 90 |  |  |  |  |
| C[C@@H]1CN(c2cccc(-c3csc(NC(=O)CNC(=O)c4ccc5c(c4)C(F)(F)COC5)n3)n2)C[C@H](C)O1 [Compound 385, N-(2-((4-(6-((cis)-2,6-dimethylmorpholino)pyridin-2-yl)thiazol-2-yl)amino)-2-oxoethyl)-4,4-difluoroisochromane-6-carboxamide] | >95 | < 0.1 | 0.1 to 1 | > 95 |  |  |  |  |
| CC1(C#N)CCOc2ccc(C(=O)NCC(=O)Nc3nc(-c4cccc([C@H]5CC5(F)F)c4)cs3)cc21 (stereo in doubt) [Compound 428, (S)-4-cyano-N-(2-((4-(3-((R)-2,2-difluorocyclopropyl)phenyl)thiazol-2-yl)amino)-2-oxoethyl)-4-methylchromane-6-carboxamide] |  |  |  |  | >95 | < 0.1 | 0.1 to 1 | > 95 |
| C[C@]1(CN)CCc2c(C(=O)NCC(=O)Nc3nc(-c4cccc(-c5ccncc5)c4)cs3)cccc21 [Compound 243, (1S)-1-(aminomethyl)-1-methyl-N-[2-oxo-2-[[4-[3-(4-pyridyl)phenyl]thiazol-2-yl]amino]ethyl]indane-4-carboxamide] | >80 | 0.1 to 1 | 1 to 5 | > 50 |  |  |  |  |
| CC(C)(CN)c1cccc(C(=O)NCC(=O)Nc2nc(-c3cccc(-c4cc(CO)cc(C(F)(F)F)c4)c3)cs2)c1 [Compound 53, 3-(1-amino-2-methylpropan-2-yl)-N-(2-((4-(3′-(hydroxymethyl)-5′-(trifluoromethyl)-[1,1′-biphenyl]-3-yl)thiazol-2-yl)amino)-2-oxoethyl)benzamide] | >90 | 0.1 to 1 | 1 to 5 | > 70 |  |  |  |  |
| CC(=O)N(C)c1cc(-c2cccc(-c3csc(NC(=O)CNC(=O)c4cccc(S(=O)(=O)C(C)C)c4)n3)c2)ccn1 [Compound 25, 3-(isopropylsulfonyl)-N-(2-((4-(3-(2-(N-methylacetamido)pyridin-4-yl)phenyl)thiazol-2-yl)amino)-2-oxoethyl)benzamide] | >90 | < 0.1 | 0.1 to 1 | > 80 |  |  |  |  |
| Cc1ccc(C(=O)NCC(=O)Nc2nc(-c3cccc(N4C[C@@H](C)O[C@@H](C)C4)c3)cs2)cc1C(C)(C)CO [Compound 238, N-(2-((4-(3-((cis)-2,6-dimethylmorpholino)phenyl)thiazol-2-yl)amino)-2-oxoethyl)-3-(1-hydroxy-2-methylpropan-2-yl)-4-methylbenzamide] | >95 | < 0.1 | 0.1 to 1 | > 90 |  |  |  |  |
| CC(C)(CN)c1cccc(C(=O)NCC(=O)Nc2nc(-c3cccc(-c4ccnc(C(F)(F)F)c4)c3)cs2)c1 [Compound 58, 3-(1-amino-2-methylpropan-2-yl)-N-(2-oxo-2-((4-(3-(2-(trifluoromethyl)pyridin-4-yl)phenyl)thiazol-2-yl)amino)ethyl)benzamide] | >80 | 0.1 to 1 | 1 to 5 | > 60 |  |  |  |  |
| C[C@@H]1CN(c2cccc(-c3csc(NC(=O)CNC(=O)c4ccc5c(c4)[C@@]4(CCC[C@H]4O)CC5)n3)c2)C[C@H](C)O1 [Compound 188, (1R,2R)-N-(2-((4-(3-((cis)-2,6-dimethylmorpholino)phenyl)thiazol-2-yl)amino)-2-oxoethyl)-2-hydroxy-2′,3′-dihydrospiro[cyclopentane-1,1′-indene]-6′-carboxamide] | >90 | 0.1 to 1 | 1 to 5 | > 50 |  |  |  |  |
| C[C@@]1(F)COCc2ccc(C(=O)NCC(=O)Nc3nc(C4CCOCC4)cs3)cc21 [Compound 297, (S)-4-fluoro-4-methyl-N-(2-oxo-2-((4-(tetrahydro-2H-pyran-4-yl)thiazol-2-yl)amino)ethyl)isochromane-6-carboxamide] | >95 | 0.1 to 1 | 1 to 5 | > 85 |  |  |  |  |
| CC(=O)N1CC(c2cccc(-c3csc(NC(=O)CNC(=O)c4ccc5c(c4)[C@](C)(C#N)COC5)n3)c2)C1 [Compound 379, (R)-N-(2-((4-(3-(1-acetylazetidin-3-yl)phenyl)thiazol-2-yl)amino)-2-oxoethyl)-4-cyano-4-methylisochromane-6-carboxamide] | >95 | < 0.1 | 0.1 to 1 | > 95 |  |  |  |  |

Second part, the molecule after the results:

| BRM Max % Inhibition [1] [%] | IC50 [1] [µM] | IC50 [2] [µM] | Emax [2] [%] | BRM Max % Inhibition ([1]; 30 nM BRM, 400 μM ATP) [%] | IC50 ([1]; 30 nM BRM, 400 μM ATP) [µM] | IC50 ([2]; 30 nM BRG-1, 400 μM ATP) [µM] | Emax ([2]; 30 nM BRG-1, 400 μM ATP) [%] | SMILES |
| --- | --- | --- | --- | --- | --- | --- | --- | --- |
| >95 | < 0.1 | < 0.1 | > 95 |  |  |  |  | C[C@@H]1CN(c2cccc(-c3csc(NC(=O)CNC(=O)c4ccc5c(c4)[C@](C)(C#N)CN5C)n3)c2)C[C@H](C)O1 [Compound 369, (S)-3-cyano-N-(2-((4-(3-((cis)-2,6-dimethylmorpholino)phenyl)thiazol-2-yl)amino)-2-oxoethyl)-1,3-dimethylindoline-5-carboxamide] |
| >95 | 0.1 to 1 | 1 to 5 | > 70 |  |  |  |  | C[C@@H]1CN(c2cccc(-c3csc(NC(=O)CNC(=O)c4ccnc(C(C)(C)C)c4)n3)c2)C[C@H](C)O1 [Compound 205, 2-(tert-butyl)-N-(2-((4-(3-((cis)-2,6-dimethylmorpholino)phenyl)thiazol-2-yl)amino)-2-oxoethyl)isonicotinamide] |
| >95 | < 0.1 | 0.1 to 1 | > 95 |  |  |  |  | COc1cccc(-c2csc(NC(=O)CNC(=O)c3ccc4c(c3)[C@](C)(F)COC4)n2)c1 [Compound 312, (S)-4-fluoro-N-(2-((4-(3-methoxyphenyl)thiazol-2-yl)amino)-2-oxoethyl)-4-methylisochromane-6-carboxamide] |
| >95 | 0.1 to 1 | 1 to 5 | > 95 |  |  |  |  | C[C@@H]1CN(c2cccc(-c3csc(NC(=O)CNC(=O)c4cccc(C5(F)COCC5O)c4)n3)n2)C[C@H](C)O1 (stereo partly drawn) [Compound 304, N-(2-((4-(6-((cis)-2,6-dimethylmorpholino)pyridin-2-yl)thiazol-2-yl)amino)-2-oxoethyl)-3-(3-fluoro-4-hydroxytetrahydrofuran-3-yl)benzamide] |
| >95 | < 0.1 | < 0.1 | > 95 |  |  |  |  | C[C@@H]1CN(c2cccc(-c3csc(NC(=O)CNC(=O)c4ccc5c(c4)[C@](C)(C#N)CCO5)n3)c2)C[C@H](C)O1 [Compound 172, (4R)-4-cyano-N-[2-[[4-[3-[(cis)-2,6-dimethylmorpholin-4-yl]phenyl]thiazol-2-yl]amino]-2-oxo-ethyl]-4-methyl-chromane-6-carboxamide] |
| >95 | < 0.1 | < 0.1 | > 95 |  |  |  |  | C[C@@]1(F)COCc2ccc(C(=O)NCC(=O)Nc3nc(-c4cccc(N5CCC5)c4)cs3)cc21 [Compound 332, (S)-N-(2-((4-(3-(azetidin-1-yl)phenyl)thiazol-2-yl)amino)-2-oxoethyl)-4-fluoro-4-methylisochromane-6-carboxamide] |
| >95 | < 0.1 | < 0.1 | > 95 |  |  |  |  | C[C@@H]1CN(c2cccc(-c3csc(NC(=O)CNC(=O)c4ccc5c(c4)C(F)(C(F)F)CCO5)n3)n2)C[C@H](C)O1 (stereo in doubt) [Compound 272, (R)-4-(difluoromethyl)-N-(2-((4-(6-((cis)-2,6-dimethylmorpholino)pyridin-2-yl)thiazol-2-yl)amino)-2-oxoethyl)-4-fluorochromane-6-carboxamide] |
